Experimental data taken from patent US20250136722A1, “CYTOTOXICITY TARGETING CHIMERAS” (GLAXOSMITHKLINE INTELLECTUAL PROPERTY DEVELOPMENT LIMITED, priority 2021, published 2025).
Several values for one entry are separate records, joined by “and”; a condition that tells them apart may be missing. Identical values can stand only once.

Key:
[1] = molecular target: T1, CHOK1 cells engineered to overexpress human CCR2 (Homo sapiens, UniProt P41597); experiment: Antibody dependent cellular cytotoxicity (ADCC) reporter assay (Example 199); assay type: cell-based; conditions: with anti-cotinine antibody SEQ ID NO: 11/12; CHOK1-human CCR2 target cells, Jurkat FcγRIIIa NFAT-luciferase reporter cells; 12-18 hours; read-out: ADCC Reporter Assay pEC50 (converted)
T1 construct: expressed in transfected cells; host or cells: CHOK1 cells
Method in brief: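 CHOK1-hCCR2 target cells are co-incubated for 12–18 h with Jurkat FcγRIIIa/NFAT-luciferase reporter cells, ARM compound (1 pM–10 μM) and anti-cotinine antibody with a DE-mutant human IgG1 Fc (0.01–200 μg/mL). Luminescence is expressed as signal:background against no-compound wells; EC50 comes from nonlinear fit and is reported as pEC50, averaged across runs.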

[2] = molecular target: Anti-cotinine antibody (SEQ ID NO: 11 / SEQ ID NO: 12, rabbit variable region with human IgG1 Fc domain); experiment: Binding of anti-cotinine antibody to ARM compounds by SPR, Biacore T200, 37° C. (Example 202); conditions: pH 7.4, rabbit variable region/human IgG1 Fc antibody captured on protein A
Protocol: Anti-cotinine antibodies having a heavy chain sequence of SEQ ID NO: 11 and a light chain sequence of SEQ ID NO: 12 (rabbit variable region with human IgG1 Fc domain containing a DE mutation (S239D/1332E)) were captured on one or more flow cells of a protein A sensor chip (Cytiva) using a Biacore T200 while reserving flow cell 1 as a reference. Following capture, a 3000 second wait step was included to reduce drift during compound analysis. ARM compounds of Formula (I) were then injected at 100 μL/min with 200 and 2000 second association and dissociation times. The entire experiment was run at 37° C. with running buffer containing 10 mM HEPES pH 7.4, 150 mM NaCl, 0.005% P20 and 1% DMSO. ARM compounds of Formula (I) were titrated with a top concentration of 200 nM using a 3-fold 5-point dilution series and a corresponding 5-injection buffer cycle was run for blank subtraction. Data were double referenced by subtracting the response of the reference flow cell from that of the antibody-containing flow cell and subsequently subtracting the referenced blank sensorgrams. Following compound analysis, the surface was regenerated using a 30 second injection of pH 1.5 glycine at a flow rate of 30 μL/min after which antibody was re-captured. The experiment was run using Biacore T200 control software and evaluated using Biacore T200 Evaluation software. Curves were fit with a 1:1 kinetic binding model to obtain kon(1/Ms), koff(1/s), Kd (M) determined as koff/kon, and residence time determined as 1/koff. (s).
Anti-cotinine antibody was tested for binding to ARMs compounds of Formula (I) of the invention in the above assay in or more experimental runs and the results are shown in Table 5 below. Affinity is reported as a pKd value. The pKd value is the negative log of the Kd value, wherein the Kd value is the dissociation constant measured in molar (M) as noted above. For compounds tested in more than one experimental run, the pKd value is reported as an average.

| pKd of Antibody for ARM Compound of Formula (I) [2] | SMILES | EC50 [1] |
| --- | --- | --- |
| 9.6885 | CC(C)N(C)[C@@H]1CC[C@H](N2CC[C@H](Nc3ncnc4ccc(C(F)(F)F)cc34)C2=O)[C@H](Nc2c(NCCOCCOCCOCCOCCOCCNC(=O)[C@H]3CC(=O)N(C)[C@@H]3c3cccnc3)c(=O)c2=O)C1 [Example 85, (2S,3S)-N-(17-((2-(((1R,2S,5R)-5-(Isopropyl(methyl)amino)-2-((S)-2-oxo-3-((6-(trifluoromethyl)quinazolin-4-yl)amino)pyrrolidin-1-yl)cyclohexyl)amino)-3,4-dioxocyclobut-1-en-1-yl)amino)-3,6,9,12,15-pentaoxaheptadecyl)-1-methyl-5-oxo-2-(pyridin-3-yl)pyrrolidine-3-carboxamide] | 8.24 nM |
| 9.0095 | CC(C)N(C)[C@@H]1CC[C@H](N2CC[C@H](Nc3ncnc4ccc(C(F)(F)F)cc34)C2=O)[C@H](NC(=O)[C@H]2CC[C@@H](NC(=O)CCOCCNC(=O)COCCNC(=O)[C@H]3CC(=O)N(C)[C@@H]3c3cccnc3)CC2)C1 [Example 98, (2S,3S)-N-(2-(2-((2-(3-(((1S,4s)-4-(((1R,2S,5R)-5-(Isopropyl(methyl)amino)-2-((S)-2-oxo-3-((6-(trifluoromethyl)quinazolin-4-yl)amino)pyrrolidin-1-yl)cyclohexyl)carbamoyl)cyclohexyl)amino)-3-oxopropoxy)ethyl)amino)-2-oxoethoxy)ethyl)-1-methyl-5-oxo-2-(pyridin-3-yl)pyrrolidine-3-carboxamide] | 1 nM and 0.631 nM |
| 9.0985 | CN1C(=O)C[C@H](C(=O)NCCOCC(=O)NCCOCC(=O)NCCOCCC(=O)N[C@@H]2C[C@H](NC(C)(C)C)CC[C@@H]2N2CC[C@H](Nc3ncnc4ccc(C(F)(F)F)cc34)C2=O)[C@H]1c1cccnc1 [Example 103] | 1.56 nM and 0.577 nM |
| 9.051 | CC(C)N(C)[C@@H]1CC[C@H](N2CC[C@H](Nc3ncnc4ccc(C(F)(F)F)cc34)C2=O)[C@H](NC(=O)COCCNC(=O)CCOCCNC(=O)COCCNC(=O)[C@H]2CC(=O)N(C)[C@@H]2c2cccnc2)C1 [Example 104, (2S,3S)-N-(18-(((1R,2S,5R)-5-(Isopropyl(methyl)amino)-2-((S)-2-oxo-3-((6-(trifluoromethyl)quinazolin-4-yl)amino)pyrrolidin-1-yl)cyclohexyl)amino)-5,12,18-trioxo-3,9,16-trioxa-6,13-diazaoctadecyl)-1-methyl-5-oxo-2-(pyridin-3-yl)pyrrolidine-3-carboxamide] | 2.28 nM |
| 8.9855 | CC(C)N(C)[C@@H]1CC[C@H](N2CC[C@H](Nc3ncnc4ccc(C(F)(F)F)cc34)C2=O)[C@H](NC(=O)CCOCCNC(=O)[C@H]2CC[C@H](NC(=O)COCCNC(=O)[C@H]3CC(=O)N(C)[C@@H]3c3cccnc3)CC2)C1 [Example 108] | 0.0501 nM |
| 8.951 | CC(C)N(C)[C@@H]1CC[C@H](N2CC[C@H](Nc3ncnc4ccc(C(F)(F)F)cc34)C2=O)[C@H](NC(=O)COCCNC(=O)[C@H]2CC[C@@H](NC(=O)CCOCCNC(=O)[C@H]3CC(=O)N(C)[C@@H]3c3cccnc3)CC2)C1 [Example 109] | 0.17 nM |
| 8.9085 | CC(C)N(C)[C@@H]1CC[C@H](N2CC[C@H](Nc3ncnc4ccc(C(F)(F)F)cc34)C2=O)[C@H](NC(=O)CCOCCNC(=O)[C@H]2CC[C@@H](NC(=O)CCOCCNC(=O)[C@H]3CC(=O)N(C)[C@@H]3c3cccnc3)CC2)C1 [Example 110] | 0.167 nM |
| 9.343 | CC(C)N(C)[C@@H]1CC[C@H](N2CC[C@H](Nc3ncnc4ccc(C(F)(F)F)cc34)C2=O)[C@H](NC(=O)[C@H]2CC[C@@H](NC(=O)CCO[C@H]3CC[C@H](OCCNC(=O)[C@H]4CC(=O)N(C)[C@@H]4c4cccnc4)CC3)CC2)C1 [Example 112, (2S,3S)-N-(2-(((1S,4S)-4-(3-(((1S,4S)-4-(((1R,2S,5R)-5-(Isopropyl(methyl)amino)-2-((S)-2-oxo-3-((6-(trifluoromethyl)quinazolin-4-yl)amino)pyrrolidin-1-yl)cyclohexyl)carbamoyl)cyclohexyl)amino)-3-oxopropoxy)cyclohexyl)oxy)ethyl)-1-methyl-5-oxo-2-(pyridin-3-yl)pyrrolidine-3-carboxamide] | 0.398 nM |
| 9.767 | CC(C)N(C)[C@@H]1CC[C@H](N2CC[C@H](Nc3ncnc4ccc(C(F)(F)F)cc34)C2=O)[C@H](NC(=O)[C@H]2CC[C@H](NC(=O)CCO[C@H]3CC[C@H](OCCNC(=O)[C@H]4CC(=O)N(C)[C@@H]4c4cccnc4)CC3)CC2)C1 [Example 113] | 4.82 nM and 8.17 nM |
| 9.363 | CC(C)N(C)[C@@H]1CC[C@H](N2CC[C@H](Nc3ncnc4ccc(C(F)(F)F)cc34)C2=O)[C@H](NC(=O)[C@H]2C[C@@H](NC(=O)CCO[C@H]3CC[C@H](OCCNC(=O)[C@H]4CC(=O)N(C)[C@@H]4c4cccnc4)CC3)C2)C1 [Example 115] | 0.408 nM and 0.305 nM |
| 9.1735 | CC(C)N(C)[C@@H]1CC[C@H](N2CC[C@H](Nc3ncnc4ccc(C(F)(F)F)cc34)C2=O)[C@H](NC(=O)CCOCCOCCNC(=O)NCCOCCOCCNC(=O)[C@H]2CC(=O)N(C)[C@@H]2c2cccnc2)C1 [Example 119, (2S,3S)-N-(20-(((1R,2S,5R)-5-(Isopropyl(methyl)amino)-2-((S)-2-oxo-3-((6-(trifluoromethyl)quinazolin-4-yl)amino)pyrrolidin-1-yl)cyclohexyl)amino)-10,20-dioxo-3,6,14,17-tetraoxa-9,11-diazaicosyl)-1-methyl-5-oxo-2-(pyridin-3-yl)pyrrolidine-3-carboxamide] | 1.58 nM |
| 9.0865 | CC(C)N(C)[C@@H]1CC[C@H](N2CC[C@H](Nc3ncnc4ccc(C(F)(F)F)cc34)C2=O)[C@H](NC(=O)CCNC2CCC3(CC2)CCN(CCCNC(=O)[C@H]2CC(=O)N(C)[C@@H]2c2cccnc2)CC3)C1 [Example 138, (2S,3S)-N-(3-(9-((3-(((1R,2S,5R)-5-(Isopropyl(methyl)amino)-2-((S)-2-oxo-3-((6-(trifluoromethyl)quinazolin-4-yl)amino)pyrrolidin-1-yl)cyclohexyl)amino)-3-oxopropyl)amino)-3-azaspiro[5.5]undecan-3-yl)propyl)-1-methyl-5-oxo-2-(pyridin-3-yl)pyrrolidine-3-carboxamide] | 3.98 nM |
| 9.275 | CC(C)N(C)[C@@H]1CC[C@H](N2CC[C@H](Nc3ncnc4ccc(C(F)(F)F)cc34)C2=O)[C@H](NC(=O)COCCNC(=O)COCCOCCNC(=O)CCNC(=O)[C@H]2CC(=O)N(C)[C@@H]2c2cccnc2)C1 [Example 143, (2S,3S)-N-(1-(((1R,2S,5R)-5-(Isopropyl(methyl)amino)-2-((S)-2-oxo-3-((6-(trifluoromethyl)quinazolin-4-yl)amino)pyrrolidin-1-yl)cyclohexyl)amino)-1,7,16-trioxo-3,9,12-trioxa-6,15-diazaoctadecan-18-yl)-1-methyl-5-oxo-2-(pyridin-3-yl)pyrrolidine-3-carboxamide] | 3.24 nM |

| SMILES | pKd of Antibody for ARM Compound of Formula (I) [2] | EC50 [1] |
| --- | --- | --- |
| CC(C)N(C)[C@@H]1CC[C@H](N2CC[C@H](Nc3ncnc4ccc(C(F)(F)F)cc34)C2=O)[C@H](NC(=O)[C@H]2CC[C@H](NC(=O)CCCOCCCCOCCNC(=O)[C@H]3CC(=O)N(C)[C@@H]3c3cccnc3)CC2)C1 [Example 121, (2S,3S)-N-(2-(4-(4-(((1R,4r)-4-(((1R,2S,5R)-5-(Isopropyl(methyl)amino)-2-((S)-2-oxo-3-((6-(trifluoromethyl)quinazolin-4-yl)amino)pyrrolidin-1-yl)cyclohexyl)carbamoyl)cyclohexyl)amino)-4-oxobutoxy)butoxy)ethyl)-1-methyl-5-oxo-2-(pyridin-3-yl)pyrrolidine-3-carboxamide] | 9.332 | 5.28 nM |
